For series [1], the target named is T1, C1s (Homo sapiens, UniProt P09871).
T1 sequence (P09871 438-688 limits assumed): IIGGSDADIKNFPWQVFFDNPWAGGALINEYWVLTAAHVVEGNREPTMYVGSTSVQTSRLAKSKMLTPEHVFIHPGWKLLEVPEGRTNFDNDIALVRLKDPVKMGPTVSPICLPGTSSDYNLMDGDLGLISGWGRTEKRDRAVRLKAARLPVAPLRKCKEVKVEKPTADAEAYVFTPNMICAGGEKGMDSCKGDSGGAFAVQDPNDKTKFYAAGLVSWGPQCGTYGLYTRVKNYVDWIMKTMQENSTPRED
T1 sequence (P09871 16-437 limits assumed): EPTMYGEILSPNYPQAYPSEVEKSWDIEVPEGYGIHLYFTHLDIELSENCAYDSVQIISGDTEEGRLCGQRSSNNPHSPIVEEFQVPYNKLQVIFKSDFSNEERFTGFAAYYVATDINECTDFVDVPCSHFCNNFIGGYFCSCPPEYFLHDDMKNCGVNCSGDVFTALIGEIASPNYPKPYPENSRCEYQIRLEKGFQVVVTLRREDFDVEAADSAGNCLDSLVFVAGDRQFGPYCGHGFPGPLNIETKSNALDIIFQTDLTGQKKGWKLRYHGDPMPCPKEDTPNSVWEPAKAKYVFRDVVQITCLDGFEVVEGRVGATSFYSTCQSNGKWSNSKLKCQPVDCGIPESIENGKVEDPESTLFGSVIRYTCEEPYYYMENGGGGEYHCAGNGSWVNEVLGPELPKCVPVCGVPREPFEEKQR
Nature of the series: anti-C1 esterase (C1s) activity (hydrolysis of ATEE). It counts as biochemical. As for the experimental part: (§1) The anti-C1 esterase (C1r, C1s) activity was determined according to the method of Okamura et al. [K. Okamura, M. Muramatsu and B. Fujii, Biochem. Biophys. Acta, 295, 252-257 (1973)]. The inhibition of complement mediated hemolysis was determined according to the method of Baker et al. [B. R. Baker and E. H. Erickson, J. Med. Chem., 12, 408-414 (1969)]. The figures in Table 2 have the following meanings:
C1s: Molar concentration of the test compound which inhibits 50% of the ability of C1s to hydrolyse ATEE (acetyltyrosin ethyl ester) (ID50).

Series [2] has as its target Plasmin (Homo sapiens, UniProt P00747). The experiment in a line: anti-plasmin activity (hydrolysis of TAME). It counts as biochemical. As for the experimental part:
(§2) The anti-trypsin, anti-plasmin, anti-kallikrein and anti-thrombin activities were determined according to the method of Muramatsu et al. [M. Muramatsu, T. Onishi, S. Makino, Y. Hayashi and S. Fujii, J. of Biochem., 58, 214 (1965)]. […] The compound No. corresponds to the compound number shown in Examples.

Series [3] in a line: Toxicity: median lethal dose (LD50). As to conditions: in vivo, mouse.
Series [4] deals with Forssman shock. The experiment in a line: Forssman shock. As to conditions: test compound 3 mg/kg before hemolysin i.v.; male Hartlay guinea pig; control death at 278, 318, 296 sec. It counts as in vivo. From the text: Quite different from other animals, guinea pig has on the surface of its organs a specific antigen called Forssman antigen which specifically reacts with the antibody of sheep erythrocyte. Forssman shock is based on the above principle and is a shock caused by the administration of antibody of sheep erythrocyte to a guinea pig. The Forssman shock was investigated in detail by many researches and it was definitely shown that this shock is a model case where the complement plays the principal part and that the shock is associated with a classical pathway in which the complement system is activated progressively starting from C1. Since the participation of complement in autoimmune diseases has been established, the Forssman shock can be said to be a useful means for testing a drug for autoimmune diseases. A drug effective for the treatment of Forssman shock is useful as a drug of autoimmune diseases.
The experiment was performed according to the method of I. G. Offerness et al. [Biochem. Pharmacol., 27 (14), 1873-1878 (1978)]. Male Hartlay guinea pig of about 300 g in body weight was used. Each guinea pig of the control group was administered intravenously with hemolysin (minimum dose to cause the shock) (commercial hemolysin, 5,000 U as assayed by the method of Ogata) and the time elapsed until death was observed. […]

For series [5], the system named is Kallikrein. The experiment in a line: anti-kallikrein activity (hydrolysis of TAME). It counts as biochemical. The method, then: as §2
Series [6] relates to complement mediated hemolysis. The experiment in a line: inhibition of complement mediated hemolysis. It counts as cell-based. The method, then:
The complement mediated hemolysis is widely used as a means to determine the titration of complement. The principle of this method is based on the fact that hemolysis is caused by the activation of complement, when the latter is added to a complex (immune complex) of erythrocytes and the antibody thereof. The degree of hemolysis varies in proportion to the amount of complement added. Therefore, when a known amount of complement admixed with a C1 esterase inhibitor is used, the hemolysis must be suppressed in proportion to the inhibitory activity.
as §1
Inhibition of complement mediated hemolysis (%): The inhibitory activity is shown in terms of percent inhibition of the compound at varied concentrations: […]

Series [7] concerns the target T2, C1r (Homo sapiens, UniProt P00736).
T2 sequence (P00736 464-705 limits assumed): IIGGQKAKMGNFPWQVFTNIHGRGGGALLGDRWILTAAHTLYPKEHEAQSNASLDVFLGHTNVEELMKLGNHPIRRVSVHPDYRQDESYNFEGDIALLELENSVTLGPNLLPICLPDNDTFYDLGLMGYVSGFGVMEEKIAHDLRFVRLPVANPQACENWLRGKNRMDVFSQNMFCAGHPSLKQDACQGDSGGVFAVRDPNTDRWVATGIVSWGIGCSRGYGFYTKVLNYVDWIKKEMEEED
T2 sequence (P00736 18-463 limits assumed): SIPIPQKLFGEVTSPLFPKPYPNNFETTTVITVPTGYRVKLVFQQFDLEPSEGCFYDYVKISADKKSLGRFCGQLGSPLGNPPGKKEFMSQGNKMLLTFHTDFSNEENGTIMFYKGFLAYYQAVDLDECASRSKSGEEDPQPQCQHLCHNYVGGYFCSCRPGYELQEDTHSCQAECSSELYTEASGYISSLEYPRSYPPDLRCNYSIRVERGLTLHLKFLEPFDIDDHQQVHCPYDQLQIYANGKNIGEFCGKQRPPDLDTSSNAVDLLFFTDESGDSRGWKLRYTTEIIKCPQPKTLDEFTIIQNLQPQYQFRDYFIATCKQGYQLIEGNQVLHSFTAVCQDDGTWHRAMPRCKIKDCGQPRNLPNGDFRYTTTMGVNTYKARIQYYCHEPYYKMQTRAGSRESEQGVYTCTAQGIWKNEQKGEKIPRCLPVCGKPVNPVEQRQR
The experiment in a line: anti-C1 esterase (C1r) activity (hydrolysis of AAME). In kind it is biochemical. As for the experimental part: as §1
C1r: Molar concentration of the test compound which inhibits 50% of the ability of C1r to hydrolyse AAME (acetylarginin methyl ester) (ID50).

Series [8] deals with Thrombin (Homo sapiens, UniProt P00734). The experiment in a line: biochemical.
The target of series [9] is T3, Trypsin (Bos taurus, UniProt P00760).
T3 sequence (P00760 24-246): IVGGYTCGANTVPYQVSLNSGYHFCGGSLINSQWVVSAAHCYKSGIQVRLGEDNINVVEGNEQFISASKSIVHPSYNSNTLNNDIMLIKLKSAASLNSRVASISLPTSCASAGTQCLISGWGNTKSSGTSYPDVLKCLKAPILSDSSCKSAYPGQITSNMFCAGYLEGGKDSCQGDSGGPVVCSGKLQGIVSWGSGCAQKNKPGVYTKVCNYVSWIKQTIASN
The experiment in a line: anti-trypsin activity (hydrolysis of TAME). In kind it is biochemical. As to conditions: read-out: ID50 Trypsin. The method, then:
as §2

Some results are limits rather than exact numbers.

Chain of Plasmin (P00747 581-810 limits assumed, species assumed): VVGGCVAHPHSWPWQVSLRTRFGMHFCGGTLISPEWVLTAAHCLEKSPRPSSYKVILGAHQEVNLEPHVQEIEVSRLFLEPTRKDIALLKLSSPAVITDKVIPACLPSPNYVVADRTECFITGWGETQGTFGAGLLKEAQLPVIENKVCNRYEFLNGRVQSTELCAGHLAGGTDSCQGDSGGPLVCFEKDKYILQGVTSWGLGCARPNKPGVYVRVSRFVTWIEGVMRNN
Chain of Plasmin (P00747 97-580 limits assumed, species assumed): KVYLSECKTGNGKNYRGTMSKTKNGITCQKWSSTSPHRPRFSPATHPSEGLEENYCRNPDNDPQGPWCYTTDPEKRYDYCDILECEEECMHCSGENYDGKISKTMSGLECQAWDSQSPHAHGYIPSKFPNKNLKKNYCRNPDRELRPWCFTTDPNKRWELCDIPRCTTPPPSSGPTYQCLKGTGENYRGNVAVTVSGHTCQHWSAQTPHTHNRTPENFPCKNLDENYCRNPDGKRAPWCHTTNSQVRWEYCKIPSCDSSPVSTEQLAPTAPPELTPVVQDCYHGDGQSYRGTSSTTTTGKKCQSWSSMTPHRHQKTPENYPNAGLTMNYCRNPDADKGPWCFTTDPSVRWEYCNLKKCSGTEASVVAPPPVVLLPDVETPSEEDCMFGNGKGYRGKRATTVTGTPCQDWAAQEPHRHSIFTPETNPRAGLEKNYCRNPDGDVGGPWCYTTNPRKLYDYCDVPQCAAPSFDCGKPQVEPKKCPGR

Broadly, the LD50 is the dose expected to kill half of the subjects tested. As for `COc1ccc(C(=O)Oc2ccc3cc(C(=N)N)ccc3c2)o1` [Compound No. 1, 6-amidino-2-naphthyl 5-methoxy-furan-2-carboxylate], the IC50 in series [1] (ATEE hydrolysis, read-out: ID50 C1s) came out at 200 nM; in series [2] (TAME hydrolysis, read-out: ID50 Plasmin), 400 nM; in series [5] (TAME hydrolysis, read-out: ID50 Kallikrein), 300 nM; in series [7] (AAME hydrolysis, read-out: ID50 C1r), 60 nM; in [8] (TAME hydrolysis, read-out: ID50 Thrombin) it was 200 nM; in series [9], 10 nM. Besides, the median lethal dose (LD50) in [3] (ip, I.P.) came to 200 mg/kg; in series [3] (po, P.O.), 2500 mg/kg. Also, in series [4], the “time elapsed until death (survival) in Forssman shock” value is “Survival”. Also, the “Inhibition of complement mediated hemolysis” value in series [6] (1 × 10^-4) is 100%; in series [6] (1 × 10^-5), 100%; in series [6] (1 × 10^-6) it was 98%; in [6] (1 × 10^-7), 99%.
Usually inhibition stands for the percentage by which the read-out fell short of the control. On to `N=C(N)c1ccc2cc(OC(=O)c3ccc([N+](=O)[O-])o3)ccc2c1` [compound 65, 6-amidino-2-naphthyl 5-nitrofuran-2-carboxylate], for which the inhibition at 10 µM in [1] (at 1×10^-5 M, figure in parentheses, read-out: percent inhibition C1s) is 28%; in [2] (at 1×10^-5 M, figure in parentheses, read-out: percentage inhibition Plasmin), < 10%; in [7] (at 1×10^-5 M, figure in parentheses, read-out: percent inhibition C1r), 30%; in series [8] (at 1×10^-5 M, figure in parentheses, read-out: percentage inhibition Thrombin) it was 13%. Besides, the “percentage inhibition Kallikrein” value in [5] (at 1×10^-5 M, figure in parentheses) is on record as “NE (the percentage inhibition is less than 10%)”. For the same molecule, the “Inhibition of complement mediated hemolysis” value is on record as 100% in series [6] (1 × 10^-4), 100% in series [6] (1 × 10^-5), 89% in series [6] (1 × 10^-6) and 80% in [6] (1 × 10^-7). In addition, the IC50 in [9] came to 800 nM.

The values above are taken from patent US4634783A, “Novel amidine compound” (Torii & Co. Ltd., priority 1983, dated 1987).
